# Measured values taken from patent publication US20050282818A1, “Ubiquitin ligase inhibitors” (Rigel Pharmaceuticals, Inc., priority 2004, published 2005).
# Read-outs that look alike come from different tables or passages of the source.
# How the values were obtained:
# TRAF6/Uev1A/Ubc13 = target: T1, TRAF6/Uev1A/Ubc13 (Homo sapiens, UniProt Q9Y4K3); assay: TRAF6/Uev1A/Ubc13 plate-based ubiquitin ligase assay; format: biochemical
# T1 sequence (Q9Y4K3 1-522): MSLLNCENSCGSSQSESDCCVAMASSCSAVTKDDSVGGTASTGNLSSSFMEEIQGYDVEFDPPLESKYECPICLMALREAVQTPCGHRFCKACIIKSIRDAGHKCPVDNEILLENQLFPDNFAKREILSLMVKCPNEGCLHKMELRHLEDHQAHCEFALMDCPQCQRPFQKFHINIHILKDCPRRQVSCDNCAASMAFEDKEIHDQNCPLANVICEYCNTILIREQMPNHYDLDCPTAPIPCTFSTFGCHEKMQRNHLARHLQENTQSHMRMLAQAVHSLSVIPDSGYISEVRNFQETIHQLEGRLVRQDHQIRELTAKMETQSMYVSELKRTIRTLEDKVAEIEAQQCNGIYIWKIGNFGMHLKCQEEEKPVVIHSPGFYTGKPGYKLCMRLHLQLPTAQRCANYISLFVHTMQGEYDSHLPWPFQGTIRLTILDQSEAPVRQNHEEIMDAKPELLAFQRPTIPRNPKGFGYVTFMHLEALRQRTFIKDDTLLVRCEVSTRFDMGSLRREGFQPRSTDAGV
# Description: For the assays described below, the TRAF6/Uev1A/UBC13 assay is the biochemical plate-based assay of TRAF6 ligase activity using Ubc13 as the E2 enzyme. The gel-based assay is the biochemical solution-based TRAF6 ligase assay (by SDS-PAGE and Western blot) to confirm the plate-based ELISA assay. The APC assay is an assay which is another E3 ligase (APC2/APC11) biochemical assay.
# A 96-well Ni-plate was blocked with 100 μl of 1% casein in PBS for 1 hour at room temperature. The plates were then washed three times with 200 μl of 1×PBS and 80 μl of a reaction buffer was added per well which contained 50 ng of Flag-ubiquitin, 50 ng of His-ubiquitin, 62.5 mM Tris pH 7.5, 6.25 mM MgCl2, 1.0 mM DTT, and 2 μM ATP. To each well was added 10 μl of a solution of the compound in DMSO. The reaction was started by adding 10 μl of a solution consisting of 10 ng human E1, 25 ng each of Uev1a and Ubc13, and 100 ng TRAF6 in the reaction buffer. The plates were shaken for 10 minutes and incubate at room temperature for 1 hour. After the incubation, the plates were washed three times with 200 μl 1×PBS in 0.05% Tween and 100 μl of an antibody mix consisting of anti-Flag (1:30,000 dilution; Sigma F-3165) and anti-Mouse IgG-HRP (1/150,000 dilution; Jackson Immunoresearch #115-035-146) in 1×PBS with 0.25% BSA. The plates were then incubated for another 1 hour at room temperature, and after incubation the plate was washed three times with 200 μl 1×PBS with 0.05% Tween. The amount of ubiquitin was measured by adding 100 μl of Lumino substrate (1:5 dilution) and reading the luminescence with a fluorimeter.
# Table 2 below illustrates the inhibitory activity of the compounds of the invention determined by the TRAF6/Uev1A/Ubc13 assay as well as in the ICAM, APC and the ROC1/CUL1 Ubiquitin Ligase Assay (SCF Assay). The IC50 values were determined using a various concentrations of the compounds.
# H1299 cells = assay: Cell proliferation PAD assay, H1299; format: cell-based; settings: Homo sapiens, 48 hours
# Description: (§1) Cell lines used are available from American Type Culture Collection (ATCC), for example, cell cultures containing A549 (ATCC# CCL-185), HeLa (ATCC# CCL-2), HCT116 ATTC# CCL-247), and H1299 (ATCC# CRL-5803) cells were maintained in T175 flasks following the ATCC recommended media and handling procedures. […] A 20,000 cells/ml solution was made for plating. Cells were plated in black Packard 96 well plates by placing 100 μl per well (2,000 cells per well). […] The definitions of the cell types used are as follows: A549 is lung carcinoma; HI 299 is non-small cell lung carcinoma; HI 155 is non-small cell lung carcinoma; AsPC-1 is pancreatic adenocarcinoma; Caov-3 is ovarian adenocarcinoma; COLO 205 is colorectal adenocarcinoma; DLD-1 colorectal adenocarcinoma; HCT116 is colorectal carcinoma; DU 145 is prostate carcinoma; ES-2 is ovarian clear cell carcinoma; H460 is large cell lung carcinoma; HELA is cervical adenocarcinoma; MIA PaCa-2 is pancreatice carcinoma; OVCAR-3 is ovarian adenocarcinoma; OVCAR8 is ovarian carcinoma; PC3 is prostate adenocarcinoma; SK-OV-3 is ovarian adenocarcinoma; SU86.86 is pancreatic carcinoma; TOV-21G is avarian clear cell carcinoma; U2OS is bone osteosarcoma; is ASPC-I is pancreatic adenocarcinoma; BXPC-3 is pabcreatic adenocarcinoma; HL60 is promyeloblast promyelocytic leukemia; K562 is bone marrow chronic myelogenous leukemia; L1210 is mouse lymphocytic leukemia; MOLT3 is T lymphoblast acute lymphoblastic leukemia; MOLT4 is T lymphoblast acute lymphoblastic leukemia; SW620 is colorectal adenocarcinoma; THP-1 is monocyte acute monocytic leukemia; U937 is histiocytic lymphoma; and UACC-257 is melanoma.
# (§2) Compounds and additional media were added 24 hours after cell plating. […] All compound testing was done in duplicate using 6.3 fold dilutions starting with 10 mM. […] Taxol and at least one additional control were run on all plates. Three microliters of the compound master plate were added to deep well blocks containing 750 μl of RPMI media. One hundred microliters were transferred from the compound/media deep well blocks to the plated cells resulting in a 500 fold dilution of the compounds. Cells were grown at 37° C., 5% CO2 for 48 hours.
# (§3) Cells to be analyzed by photography were fixed and stained. One hundred microliters of media were removed and 100 μl of 9.3% formamide was added to each well. Plates were left on the benchtop for 45 minutes. A staining solution containing 1.55 μl of 1 mg/ml DAPI added to 18.75 ml PBS was warmed for 15 minutes at 37° C. The cells were aspirated prior to washing with 100 μl of PBS. Seventy microliters of PBS were aspirated and 170 μl of the DAPI solution were added to each well of fixed cells. Plates were left at room temperature for one hour then aspirated and washed twice with 100 μl of PBS. The stained cells were left at 4° C. for a minimum of 16 hours before photographic analysis with Array Scan II (Cellomics). Analysis of the photographic images to determine numbers of live cells (proliferation), apoptotic cells and dead cells, were according to the methods described in U.S. Utility patent application Ser. No. 10/652,440, which incorporated herein in its entirety.
# A549 cells = assay: Cell proliferation PAD assay, A549; format: cell-based; settings: Homo sapiens, 48 hours
# Description: as §1, §2, §3
# [1] = NCI-H1299, 6pt, read-out: H1299 6pt
# [2] = NCI-H1299, 3pt, read-out: H1299 3pt
Structure (SMILES),IC50 (TRAF6/Uev1A/Ubc13) [µM],IC50 (H1299 cells; [1]) [µM],"IC50 (A549 cells; 6pt, read-out: A549 6pt) [µM]",IC50 (H1299 cells; [2]) [µM],"IC50 (A549 cells; 3pt, read-out: A549 3pt) [µM]"
"COC(=O)c1ccc(Nc2ccc3nonc3c2S(=O)(=O)Nc2ccc(C(=O)OC)cc2)cc1 [compound 10, methyl 4-{[(5-{[4-(methoxycarbonyl)phenyl]amino}-2,1,3-benzoxadiazol-4-yl)sulfonyl]amino}benzoate]",≥ 20,≥ 20,≥ 20,–,–
"O=S(=O)(Nc1cccc2cnccc12)c1cccc2nonc12 [compound 12, N-isoquinolin-5-yl-2,1,3-benzoxadiazole-4-sulfonamide]",≥ 20,–,–,≥ 20,≥ 20
"Cc1ccc(F)cc1NS(=O)(=O)c1cccc2nonc12 [compound 13, N-(5-fluoro-2-methylphenyl)-2,1,3-benzoxadiazole-4-sulfonamide]",≥ 20,–,–,≥ 20,≥ 20
"O=S(=O)(Nc1ccc(Oc2ncc(C(F)(F)F)cc2Cl)cc1)c1cccc2nonc12 [compound 62, N-(4-{[3-chloro-5-(trifluoromethyl)pyridin-2-yl]oxy}phenyl)-2,1,3-benzoxadiazole-4-sulfonamide]",≥ 20,–,–,≥ 20,≥ 20
"CC(C)(C)OC(=O)N1CCN(c2ccc([N+](=O)[O-])c3nonc23)CC1 [compound 72, Tert-butyl 4-(7-nitro-2,1,3-benzoxadiazol-4-yl)piperazine-1-carboxylate]",≥ 20,–,–,≥ 20,≥ 20
"O=S(=O)(Nc1cccc2nonc12)c1ccc(Oc2ccncc2)cc1 [compound 80, N-2,1,3-benzoxadiazol-4-yl-4-(pyridin-4-yloxy)benzenesulfonamide]",≥ 20,–,–,≥ 20,≥ 20
"O=[N+]([O-])c1ccc(N2CCN(CCN3CCOCC3)CC2)c2nonc12 [compound 85, 4-[4-(2-morpholin-4-ylethyl)piperazin-1-yl]-7-nitro-2,1,3-benzoxadiazole]",≥ 20,–,–,≥ 20,≥ 20
"O=S(=O)(Nc1cccc2nonc12)c1ccc(Oc2cccnc2)cc1 [compound 86, N-2,1,3-benzoxadiazol-4-yl-4-(pyridin-3-yloxy)benzenesulfonamide]",≥ 20,–,–,≥ 20,≥ 20
"O=S(=O)(Nc1cccc2nonc12)c1ccc(Oc2ccccc2)cn1 [compound 87, N-2,1,3-benzoxadiazol-4-yl-5-phenoxypyridine-2-sulfonamide]",≥ 20,–,–,≥ 20,≥ 20
"CC(=O)N1CCN(c2ccc([N+](=O)[O-])c3nonc23)CC1 [compound 88, 4-(4-acetylpiperazin-1-yl)-7-nitro-2,1,3-benzoxadiazole]",≥ 20,–,–,≥ 20,≥ 20

# Continued, values first:
IC50 (TRAF6/Uev1A/Ubc13) [µM],IC50 (H1299 cells; [1]) [µM],"IC50 (A549 cells; 6pt, read-out: A549 6pt) [µM]",IC50 (H1299 cells; [2]) [µM],"IC50 (A549 cells; 3pt, read-out: A549 3pt) [µM]",Structure (SMILES)
≥ 20,–,–,≥ 20,≥ 20,"O=S(=O)(Nc1ccc(Oc2ncccn2)c(Cl)c1)c1cccc2nonc12 [compound 91, N-[3-chloro-4-(pyrimidin-2-yloxy)phenyl]-2,1,3-benzoxadiazole-4-sulfonamide]"
1 to 20,≥ 20,≥ 20,–,–,"O=S(=O)(Nc1cccc2nonc12)c1ccc(Oc2ccccc2)cc1 [compound 93, N-2,1,3-benzoxadiazol-4-yl-4-phenoxybenzenesulfonamide]"
–,< 1,< 1,–,–,"COc1cccc(-c2ccc([N+](=O)[O-])c3nonc23)c1 [compound 319, 7-(3-Methoxyphenyl)-4-nitro-2,1,3-benzoxadiazole]"
–,< 1,1 to 20,–,–,"O=[N+]([O-])c1ccc(-c2cccc(F)c2)c2nonc12 [compound 320, 7-(3-Fluorophenyl)-4-nitro-2,1,3-benzoxadiazole]"
–,≥ 20,≥ 20,–,–,"Cc1cc(C)cc(-c2cc(Cl)c3nonc3c2)c1 [compound 322, 4-Chloro-6-[3,5-(dimethyl)phenyl]-2,1,3-benzoxadiazole]"
–,≥ 20,≥ 20,–,–,"Cc1cc(C)cc(-c2cc(-c3cc(C)cc(C)c3)c3nonc3c2)c1 [compound 323, 4,6-bis[3,5-(dimethyl)phenyl]-2,1,3-benzoxadiazole]"
–,≥ 20,≥ 20,–,–,"Fc1cc(F)cc(-c2cc(Cl)c3nonc3c2)c1 [compound 324, 4-Chloro-6-[3,5-(difluoro)phenyl]-2,1,3-benzoxadiazole]"
–,≥ 20,≥ 20,–,–,"FC(F)(F)c1cccc(-c2cc(Cl)c3nonc3c2)c1 [compound 325, 4-Chloro-6-[3-(trifluoromethyl)phenyl]-2,1,3-benzoxadiazole]"
–,≥ 20,≥ 20,–,–,"Cc1cccc(-c2cc(Cl)c3nonc3c2)c1 [compound 326, 4-Chloro-6-(3-methylphenyl)-2,1,3-benzoxadiazole]"
–,≥ 20,≥ 20,–,–,"FC(F)(F)c1ccc(-c2cc(Cl)c3nonc3c2)cc1 [compound 327, 4-Chloro-6-[4-(trifluoromethyl)phenyl]-2,1,3-benzoxadiazole]"
–,≥ 20,≥ 20,–,–,"COc1cccc(-c2cc(Cl)c3nonc3c2)c1 [compound 328, 4-Chloro-6-(3-methoxyphenyl)-2,1,3-benzoxadiazole]"
–,≥ 20,≥ 20,–,–,"CC(C)(C)c1ccc(-c2cc(Cl)c3nonc3c2)cc1 [compound 329, 4-Chloro-6-(4-(tert-butyl)phenyl)-2,1,3-benzoxadiazole]"
